The term MIC denotes the lowest concentration found to suppress growth. Lower therefore signals greater potency.

Experimental findings from patent US5438053A, “Cephem compounds compositions and method” (Takeda Chemical Industries, Ltd., priority 1992, dated 1995) are described below.

For one assay, the system named is P. aeruginosa P9. Description: Minimal inhibitory concentration (MIC) by the agar dilution method, P. aeruginosa P9. In kind it is cell-based. The following applies: Pseudomonas aeruginosa, Mueller-Hinton agar, about 10^4 CFU/spot, 37° C. overnight. How it is done: (§1) Test Example 1 Minimal Inhibitory Concentrations (MIC)
(§2) The minimal inhibitory concentrations (MIC) of the test compounds were determined by the agar dilution method. More specifically, 0.25 ml each of aqueous solutions of the test compounds diluted by the serial dilution method was poured into petridishes. To each of these petridishes was poured 9.75 ml of Mueller-Hinton agar, followed by mixing. On each of these agar plates was a suspension of the test microorganism (about 10^4 CFU/spot). The lowest concentration of the test compounds inhibiting the growth of test microorganisms, after the incubation at 37° C. overnight, was taken as MIC.
(In general: In agar dilution, organisms are placed on agar that contains the substance at set levels.)

The subject of a further assay is P. aeruginosa NC-5. Description: Minimal inhibitory concentration (MIC) by the agar dilution method, P. aeruginosa NC-5. The note with it: Pseudomonas aeruginosa, NC5, Mueller-Hinton agar, about 10^4 CFU/spot, 37° C. overnight. The assay is classed as cell-based. Here is the method:
as §1, §2

On to `CO/N=C(\C(=O)N[C@@H]1C(=O)N2C(C(=O)O)=C(CSc3snc(SCc4cc(=O)c(O)cn4O)c3C#N)CS[C@H]12)c1nsc(N)n1` [Ex. 3, Sodium 7β-[2-(5-amino-1,2,4-thiadiazol-3-yl)-(Z)-2-methoxyiminoacetamido]-3-[[4-cyano-3-[(1,5-dihydroxy-4-pyridon-2-yl)methylthio]isothiazol-5-yl]thiomethyl]-3-cephem-4-carboxylate], for which the MIC against P. aeruginosa P9 worked out at 0.1 mg/L; in the assay with P. aeruginosa NC-5, 0.05 mg/L.

Consider `CO/N=C(\C(=O)N[C@@H]1C(=O)N2C(C(=O)O)=C(CSc3nnnn3Cc3cc(=O)c(O)cn3OC)CS[C@H]12)c1nsc(N)n1` [Ex. 10, Sodium 7β-[2-(5-amino-1,2,4-thiadiazol-3-yl)-(Z)-2-methoxyiminoacetamido]-3-[[1-[(5-hydroxy-1-methoxy-4-pyridon-2-yl)methyl]-1H-tetrazol-5-yl]thiomethyl]-3-cephem-4-carboxylate], for which the figures for the MIC against P. aeruginosa P9 and against P. aeruginosa NC-5 were 0.2 mg/L and 0.1 mg/L, respectively.

On to `CCO/N=C(\C(=O)N[C@@H]1C(=O)N2C(C(=O)O)=C(CSc3nnnn3Cc3cc(=O)c(O)cn3OC)CS[C@H]12)c1nsc(N)n1` [Ex. 12, Sodium 7β-[2-(5-amino-1,2,4-thiadiazol-3-yl)-(Z)-2-ethoxyiminoacetamido]-3-[[1-[(5-hydroxy-1-methoxy-4-pyridon-2-yl)methyl]-1H-tetrazol-5-yl]thiomethyl]-3-cephem-4-carboxylate], for which the MIC in the assay on P. aeruginosa P9 and against P. aeruginosa NC-5 was 0.2 mg/L in each case.

For the compound `CC(C)(O/N=C(\C(=O)N[C@@H]1C(=O)N2C(C(=O)O)=C(CSc3nnnn3Cc3cc(=O)c(O)cn3O)CS[C@H]12)c1nsc(N)n1)C(=O)O` [Ex. 26, Disodium 7β-[2-(5-amino-1,2,4-thiadiazol-3-yl)-(Z)-2-(1-carboxylato-1-methylethoxyimino)acetamido]-3-[[1-[(1,5-dihydroxy-4-pyridon-2-yl)methyl]-1H-tetrazol-5-yl]thiomethyl]-3-cephem-4-carboxylate], the minimal inhibitory concentration (MIC) with P. aeruginosa P9 came to 0.025 mg/L; in the assay on P. aeruginosa NC-5, 0.006 mg/L.
